Experimental data: ChEMBL document CHEMBL1135798, “Structure-activity relationships of the antimalarial agent artemisinin. 6. The development of predictive in vitro potency models using CoMFA and HQSAR methodologies” (2002)

System: Plasmodium falciparum
Test: Antimalarial activity against chloroquine-resistant, mefloquine-sensitive Plasmodium falciparum W2
Format: functional

Row | SMILES | Log RA
1 | CC(C)C[C@@]12CC[C@H]3[C@H](C)CC[C@H]4CCO[C@H](O1)[C@]43OO2 | 0.4
2 | C[C@@H]1CC[C@H]2[C@@H](CCc3ccccc3)C(=O)O[C@@H]3O[C@@]4(C)CC[C@@H]1[C@]32O4 | -4
3 | CCO[C@H]1O[C@@H]2O[C@@]3(C)CC[C@H]4C(C)C(F)(F)C[C@@H]([C@H]1C)[C@@]24OO3 (stereo partly specified) | 0.19
4 | COCC[C@@H]1CCC[C@@H]2CC[C@@]3(C)OO[C@]21[C@@H](OC)O3 | -0.39
5 | COC1O[C@@H]2O[C@@]3(C)CC[C@H]4[C@H](C)CC[C@@H]([C@H]1C)[C@@]24OO3 (stereo partly specified) | 0.28
6 | C[C@@H]1CC[C@H]2CC(=O)O[C@@H]3O[C@@]4(CCCc5ccc(Cl)cc5)CC[C@@H]1[C@@]23OO4 | 0.1
7 | C[C@@H]1CC[C@H]2[C@@H](C)C(=O)N(CC=O)[C@@H]3O[C@@]4(C)CC[C@@H]1[C@@]23OO4 | 1.47
8 | C[C@@H]1CC[C@@H]2[C@]34OO[C@](C)(CC[C@@H]13)O[C@H]4OC(=O)[C@@]2(O)CO | -4
9 | CC(C)C[C@@]12CC[C@H]3[C@H](C)CC[C@H]4CCO[C@H](O1)[C@]43O2 | -4
10 | CO[C@H]1O[C@@]2(C)CC[C@H]3CCC[C@@H](CCOC(=O)c4ccc(C(=O)O)cc4)[C@]31OO2 | -0.81
11 | CC[C@@]12CC[C@H]3[C@H](C)CC[C@H]4CC(=O)O[C@H](O1)[C@]43O2 | -4
12 | CCO[C@H]1O[C@@H]2O[C@@]3(C)CC[C@H]4C(C)=C(F)C[C@@H]([C@H]1C)[C@@]24OO3 | -0.12
13 | CCOC(=O)CC[C@@]12CC[C@H]3[C@H](C)CC[C@H]4CCO[C@H](O1)[C@]43OO2 | 0.7
14 | COC(=O)[C@H](C)COC1O[C@@H]2O[C@@]3(C)CC[C@H]4[C@H](C)CC[C@@H]([C@H]1C)[C@@]24OO3 (stereo partly specified) | 2.25
15 | C[C@@H]1CC[C@H]2CC(=O)N(Cc3ccccc3)[C@@H]3O[C@@]4(C)CC[C@@H]1[C@@]23OO4 | 0.34
16 | CCCCCC[C@H]1C(=O)O[C@@H]2O[C@@]3(C)CC[C@H]4[C@H](C)CC[C@@H]1[C@@]24O3 | -4
17 | CCO[C@H]1O[C@@H]2O[C@@]3(C)CC(O)[C@H]4C(C)CC[C@@H]([C@H]1C)[C@@]24OO3 (stereo partly specified) | -1.08
18 | CO[C@H]1O[C@]2(C)OO[C@]13[C@H](CCOCc1ccccc1)CCC[C@@H]3CC2(C)C | -1.8
19 | CO[C@H]1O[C@@]2(C)CC[C@H]3CCC[C@@H](CCOCc4ccccc4)[C@]31OO2 | 0.75
20 | CCOC(=O)C[C@H](O[C@H]1O[C@@H]2O[C@@]3(C)CC[C@H]4[C@H](C)CC[C@@H]([C@H]1C)[C@@]24OO3)c1ccccc1 | 0.9
21 | C[C@H]1[C@@H](O[C@@H](CC(=O)O)c2ccc([N+](=O)[O-])cc2)O[C@@H]2O[C@@]3(C)CC[C@H]4[C@H](C)CC[C@@H]1[C@@]24OO3 | 0.1
22 | CC(C)CN1C(=O)[C@H](C)[C@@H]2CC[C@@H](C)[C@@H]3CC[C@]4(C)O[C@@H]1[C@@]32O4 | -4
23 | CCCC[C@H]1C(=O)O[C@@H]2O[C@@]3(CCCC)CC[C@H]4[C@H](C)CC[C@@H]1[C@@]24OO3 | -0.48
24 | CO[C@@H]1O[C@@]2(C)CC[C@H]3CC(C)(C)CC[C@]31OO2 | -0.47

Row | SMILES | Log RA
25 | CC1O[C@@H]2O[C@@]3(C)CC[C@H]4[C@H](C)CC[C@@H]1[C@@]24OO3 (stereo partly specified) | -0.64
26 | CCC[C@@]12CC[C@H]3[C@H](C)CC[C@H]4CCO[C@H](O1)[C@]43OO2 | 0.84
27 | C[C@H]1[C@@H](O[C@@H](C)c2ccc(C(=O)O)cc2)O[C@@H]2O[C@@]3(C)CC[C@H]4[C@H](C)CC[C@@H]1[C@@]24OO3 | 0.21
28 | CO[C@H]1O[C@@]2(C)CC[C@H]3CCC[C@@H](CCOCc4ccc(-c5ccccc5)cc4)[C@]31OO2 | 0.32
29 | C[C@@H]1CCC2[C@@H](C)COC3OC(C)(C)OO[C@@]32C1 (stereo partly specified) | -0.8
30 | CC1CO[C@@H]2O[C@@]3(C)CC[C@H]4[C@H](C)CC[C@@H]1[C@@]24OO3 (stereo partly specified) | -0.79
31 | CCOC(=O)[C@H](O[C@H]1O[C@@H]2O[C@@]3(C)CC[C@H]4[C@H](C)CC[C@@H]([C@H]1C)[C@@]24OO3)c1ccccc1 | 0.87
32 | CCCC[C@H]1C(=O)OC2OC(C)(C)OO[C@@]23CCCCC13 (stereo partly specified) | -1.13
33 | C[C@@H]1CC[C@H]2CCO[C@@H]3O[C@@]4(CCc5ccccc5)CC[C@@H]1[C@@]23OO4 | -1.7
34 | C[C@@H]1CC[C@H]2[C@@H](C)C(=O)N(c3cccs3)[C@@H]3O[C@@]4(C)CC[C@@H]1[C@@]23OO4 | 0.17
35 | C[C@@H]1CC[C@H]2[C@@H](C)C(=O)N(c3ccco3)[C@@H]3O[C@@]4(C)CC[C@@H]1[C@@]23OO4 | 0.11
36 | C=C1C(O)O[C@@H]2O[C@@]3(C)CC[C@H]4[C@H](C)CC[C@@H]1[C@@]24OO3 (stereo partly specified) | -2.39
37 | CCC[C@H](Cc1ccccc1)OC1O[C@@H]2O[C@@]3(C)CC[C@H]4[C@H](C)CC[C@@H]([C@H]1C)[C@@]24OO3 (stereo partly specified) | -0.09
38 | C[C@@H]1CCC2[C@@H](C)C(=O)OC3OC(C)(C)OO[C@@]32[C@H]1C (stereo partly specified) | -0.86
39 | CO[C@H]1O[C@@]2(C)CC[C@H]3CCC[C@@H](CCOCc4c(C)noc4C)[C@]31OO2 | 0.58
40 | C[C@@H]1CC[C@H]2[C@@H](C)C(=O)N[C@@H]3O[C@@]4(C)CC[C@@H]1[C@]32OO4 | 0
41 | c1ccc([C@@]23CCC[C@](c4ccccc4)(CC2)OO3)cc1 | -0.91
42 | C/C=C/C[C@@H]1C(=O)O[C@@H]2O[C@@]3(C)CC[C@H]4[C@H](C)CC[C@@H]1[C@@]24OO3 | -0.6
43 | C[C@@H]1CC[C@H]2[C@@H](C)C(OCC3C4CC5CC(C4)CC3C5)O[C@@H]3O[C@@]4(C)CC[C@@H]1[C@]32OO4 (stereo partly specified) | 0.28
44 | CCCC[C@H]1C(O)O[C@@H]2O[C@@]3(C)CC[C@H]4[C@H](C)CC[C@@H]1[C@@]24OO3 (stereo partly specified) | 0.96
45 | C[C@@H]1CC[C@H]2[C@@H](C)C(CCCO)O[C@@H]3O[C@@]4(C)CC[C@@H]1[C@]32OO4 (stereo partly specified) | 0.78
46 | CCCC[C@@]12CC[C@H]3[C@H](C)CC[C@H]4CCO[C@H](O1)[C@]43OO2 | 0.75
47 | C[C@@H]1CCC[C@@]23CO[C@@](C)(CC[C@@H]12)OO3 | -0.32
48 | COC(=O)C[C@@H](C)OC1O[C@@H]2O[C@@]3(C)CC[C@H]4[C@H](C)CC[C@@H]([C@H]1C)[C@@]24OO3 (stereo partly specified) | 1.7

Row | SMILES | Log RA
49 | C[C@@H]1CC[C@H]2[C@@H](C)C(=O)N(C)[C@@H]3O[C@@]4(C)CC[C@@H]1[C@@]23OO4 | 0.43
50 | C[C@@H]1CC[C@H]2[C@@H](C)C(=O)N(Cc3ccccn3)[C@@H]3O[C@@]4(C)CC[C@@H]1[C@@]23OO4 | 1.46
51 | CC[C@@]12CC[C@H]3[C@H](C)CC[C@H]4CC(=O)O[C@H](O1)[C@]43OO2 | 0.05
52 | c1ccc([C@]23CC[C@@](c4ccccc4)(COC2)OO3)cc1 | -2.26
53 | CCOC(=O)CC[C@@]12CC[C@H]3[C@H](C)CC[C@H]4CC(=O)O[C@H](O1)[C@]43OO2 | 0.37
54 | C[C@H]1C(=O)OC2OC(C)(C)OO[C@@]23CCCCC13 (stereo partly specified) | -1.27
55 | CCCN1C(=O)C[C@@H]2CC[C@@H](C)[C@@H]3CC[C@@]4(C)OO[C@@]23[C@H]1O4 | 0.05
56 | CC(C)C[C@H]1C(=O)O[C@@H]2O[C@@]3(C)CC[C@H]4[C@H](C)CC[C@@H]1[C@@]24OO3 | -0.55
57 | C[C@@H]1CC[C@H]2[C@@H](C)CO[C@H]3C[C@]4(C)CC[C@@H]1[C@@]32OO4 | -2.59
58 | CCC[C@H]1C(OCC)O[C@@H]2O[C@@]3(C)CC[C@H]4[C@H](C)CC[C@@H]1[C@@]24OO3 (stereo partly specified) | -0.04
59 | CCOC(=O)C[C@@H](O[C@H]1O[C@@H]2O[C@@]3(C)CC[C@H]4[C@H](C)CC[C@@H]([C@H]1C)[C@@]24OO3)c1ccccc1 | 1.07
60 | CCOC(=O)COC1O[C@@H]2O[C@@]3(C)CC[C@H]4[C@H](C)CC[C@@H]([C@H]1C)[C@@]24OO3 (stereo partly specified) | 0.52
61 | CO[C@H]1O[C@@]2(C)CC[C@H]3CCC[C@@H](CCOCc4ccccn4)[C@]31OO2 | 0.17
62 | C[C@@H]1CC[C@H]2CC(=O)N(CCc3ccccc3)[C@@H]3O[C@@]4(C)CC[C@@H]1[C@@]23OO4 | 0.16
63 | COc1ccc([C@@]23CCC[C@](c4ccc(OC)cc4)(CC2)OO3)cc1 | -0.67
64 | C/C=C\C[C@@H]1C(=O)O[C@@H]2O[C@@]3(C)CC[C@H]4[C@H](C)CC[C@@H]1[C@@]24OO3 | -1.1
65 | C[C@@H]1CC[C@H]2[C@](C)(O)[C@H](O)O[C@@H]3O[C@@]4(C)CC[C@@H]1[C@]32OO4 | -0.89
66 | C=CCOCC[C@@H]1CCC[C@@H]2CC[C@@]3(C)OO[C@]21[C@@H](OC)O3 | 0.4
67 | C[C@H]1[C@@H](O)O[C@@H]2O[C@@]3(C)CC[C@H]4[C@H](C)CC[C@@H]1[C@@]24OO3 [ARTENIMOL] | 0.55
68 | CO[C@@H]1O[C@@]2(C)CC[C@H]3CCC[C@@H](CCOC(=O)N(C)C)[C@]31OO2 | 0.33
69 | O=S(=O)(c1ccccc1)N1C[C@]2(c3ccccc3)CC[C@@](c3ccccc3)(C1)OO2 | -2.26
70 | C[C@@H]1CC[C@H]2CC(=O)O[C@@H]3O[C@@]4(CCCCc5ccccc5)CC[C@@H]1[C@@]23OO4 | 0.45
71 | C[C@@H]1CC[C@H]2[C@@H](C)C(OC(C)(C)C)O[C@@H]3O[C@@]4(C)CC[C@@H]1[C@]32OO4 (stereo partly specified) | 0.92
